Consider nine compounds from PubChem BioAssay (NCI).

Some test systems named below: CAKI-1 renal; HCT-116 colon; HCT-15 colon; HT29 colon; MOLT-4 leukemia; OVCAR-3 ovarian; PC-3 prostate; RXF 393 renal; SF-295 CNS; SK-MEL-5 melanoma; SNB-19 CNS; SR leukemia; UO-31 renal.
Assay in all cases: NCI tumour cell line growth inhibition, 48 h

“And” between values parts separate entries of the source, which are not always exact repeats. Equal entries are not always repeated.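 Where inhibition never reached the appropriate level, the endpoint shown equals the highest concentration tested. Otherwise, values were interpolated linearly from a five-concentration, 48-hour dose response in 96-well plates. At the GI50, growth is halved. TGI: concentration producing complete growth inhibition.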

In the case of `CCOC(=O)c1c(-c2ccc(O)c(OC)c2)c(C#N)c(=S)n(C2OC(COC(C)=O)C(OC(C)=O)C(OC(C)=O)C2OC(C)=O)c1-c1ccccc1` (centres undefined), the TGI is above 100 µM in the test with CAKI-1 renal; above 100 µM in the test on HCT-116 colon; above 100 µM with HCT-15 colon; above 100 µM in the test on HT29 colon; above 100 µM in the test on MOLT-4 leukemia; 48.4 µM and > 100 µM with OVCAR-3 ovarian. Besides, the TGI in the test on PC-3 prostate is above 100 µM; with RXF 393 renal, above 100 µM; with SF-295 CNS, above 100 µM; in the test with SK-MEL-5 melanoma, 65.6 µM and > 100 µM; with SNB-19 CNS, above 100 µM; in the test on SR leukemia it was above 100 µM. The compound also yielded a TGI in the test with UO-31 renal above 100 µM. For the same compound, the GI50 in the test on OVCAR-3 ovarian was 21.6 µM and 56.8 µM; in the test with SK-MEL-5 melanoma it was 21.9 µM and 47.2 µM.
In the case of `O=c1[nH]c(=S)[nH]n1C(=S)n1[nH]c(=S)[nH]c1=O`, the TGI with CAKI-1 renal, with HCT-116 colon, in the test with HCT-15 colon, in the test on HT29 colon, in the test with MOLT-4 leukemia and in the test with OVCAR-3 ovarian was above 100 µM each time. Besides, the TGI with PC-3 prostate, in the test on RXF 393 renal, with SF-295 CNS, with SK-MEL-5 melanoma, with SNB-19 CNS and with SR leukemia was above 100 µM each time. In the test on UO-31 renal, this compound returned a TGI above 100 µM.
With `C=C(Br)CN(C(C)=O)C1CCCCC1`, the TGI in the test with CAKI-1 renal, in the test on HCT-116 colon, in the test on HCT-15 colon, with HT29 colon, with MOLT-4 leukemia and in the test with OVCAR-3 ovarian was above 100 µM throughout. For the same compound, the TGI with PC-3 prostate, with RXF 393 renal, with SF-295 CNS, with SK-MEL-5 melanoma, in the test with SNB-19 CNS and in the test on SR leukemia was above 100 µM throughout. Moreover, in the test with UO-31 renal, the TGI is above 100 µM.
Turning to `COc1cccc2c(Nc3ccc(S(=O)(=O)NC(C)=O)cc3)c3ccc([N+](=O)[O-])cc3nc12`, the TGI is above 100 µM in the test with CAKI-1 renal; above 100 µM with HCT-116 colon; above 100 µM in the test with HCT-15 colon; 28.5 µM in the test on HT29 colon; 80.5 µM in the test on MOLT-4 leukemia; above 90.4 µM in the test with OVCAR-3 ovarian. The TGI is above 100 µM with PC-3 prostate; above 100 µM in the test with RXF 393 renal; above 100 µM with SF-295 CNS; above 78.3 µM in the test on SK-MEL-5 melanoma; above 100 µM in the test on SNB-19 CNS; 34.3 µM in the test with SR leukemia. The TGI in the test with UO-31 renal was above 100 µM.
Take `O=c1cc(CBr)c2ccc(O)cc2o1`: the TGI in the test with CAKI-1 renal, in the test on HCT-116 colon, in the test with HCT-15 colon, in the test with HT29 colon, with MOLT-4 leukemia and in the test on OVCAR-3 ovarian was above 100 µM each time. In addition, the TGI with PC-3 prostate, in the test with RXF 393 renal, in the test on SF-295 CNS, in the test on SK-MEL-5 melanoma, with SNB-19 CNS and in the test on SR leukemia was above 100 µM throughout. The compound further came in with a TGI with UO-31 renal above 100 µM.
As to `CCN(CC)C(=S)SNCc1ccc(S(N)(=O)=O)cc1`, the TGI with CAKI-1 renal is 31.3 µM; with HCT-116 colon it was 27.4 µM; in the test with HCT-15 colon it was 58 µM; in the test on HT29 colon, 21 µM; in the test on MOLT-4 leukemia, above 62.2 µM; in the test with OVCAR-3 ovarian it was 27.5 µM. The TGI with PC-3 prostate is 26.1 µM; with RXF 393 renal, 45.9 µM; in the test with SF-295 CNS, 34.9 µM; in the test on SK-MEL-5 melanoma, 36.2 µM; in the test with SNB-19 CNS, 34.1 µM; in the test on SR leukemia it was above 64.6 µM. Also, in the test on UO-31 renal, the TGI was 28.8 µM.
As for `c1ccc(Nc2nnc(Cn3ccc4ccccc43)s2)cc1`, the TGI in the test with CAKI-1 renal was 70.6 µM; in the test with HCT-116 colon it was above 100 µM; with HCT-15 colon it was above 100 µM; with HT29 colon, above 100 µM; in the test with MOLT-4 leukemia, above 100 µM; with OVCAR-3 ovarian, above 100 µM. Moreover, the TGI in the test on PC-3 prostate was above 100 µM; in the test with RXF 393 renal, above 100 µM; in the test on SF-295 CNS, 80.9 µM; in the test on SK-MEL-5 melanoma it was above 100 µM; in the test on SNB-19 CNS it was above 100 µM; in the test with SR leukemia, above 100 µM. In the test with UO-31 renal, the TGI was above 100 µM.
In the case of `OC(C/C(=N\N1CCCCC1)c1cccs1)(C(F)(F)F)C(F)(F)F`, the TGI in the test with CAKI-1 renal, in the test on HCT-116 colon, in the test on HCT-15 colon, in the test on HT29 colon, in the test with MOLT-4 leukemia and in the test on OVCAR-3 ovarian was above 10 µM in each case. The TGI in the test with PC-3 prostate, in the test with RXF 393 renal, with SF-295 CNS, in the test on SK-MEL-5 melanoma, with SNB-19 CNS and in the test on SR leukemia was above 10 µM each time. In the test with UO-31 renal, this compound gave a TGI above 10 µM.
`COc1cc(Nc2cnc3cc(F)c(F)cc3n2)cc(OC)c1`: the TGI with CAKI-1 renal, with HCT-116 colon, with HCT-15 colon, in the test with HT29 colon, in the test on MOLT-4 leukemia and with OVCAR-3 ovarian was above 100 µM each time. In addition, the TGI in the test on PC-3 prostate is above 100 µM; in the test with RXF 393 renal it was 51.2 µM; in the test on SF-295 CNS, above 100 µM; with SK-MEL-5 melanoma, above 100 µM; with SNB-19 CNS it was above 100 µM; in the test with SR leukemia, above 100 µM. The compound also had a TGI in the test on UO-31 renal above 100 µM.
